Data published in US7968565B2, “Therapeutic combinations comprising (+)-1,4-dihydro-7-[(3S,4S)-3-methoxy-4-(methylamino)-1-pyrrolidinyl]-4-oxo-1-(2-thiazolyl)-1,8-naphthyridine-3-carboxylic acid” (Sunesis Pharmaceuticals, Inc., priority 2004, dated 2011).

Tests used:
DNA-PK pathway [1] = test: Pharmacodynamic study, HCT116 xenograft tumors, Western blots (FIG. 3); assay type: in vivo; settings: nu/nu mice, IV bolus 20 or 40 mg/kg, 1-24 hours post dose
Procedure: Nu/nu mice (ca. 25 grams) were injected with HCT116 cells (which were obtained from the ATCC) in the hind flank at 5 million cells with 50% matrigel (Becton-Dickinson). Tumors were allowed to grow to 400 mm^3. Xenograft bearing animals were then given either an IV bolus injection of SNS-595 (20 or 40 mg/kg) in the tail vein or a saline vehicle. At prescribed time points (1, 2, 4, 8, 16, and 24 hours post dose), animals were anesthetized with CO2, blood was taken via terminal cardiac puncture, and animals were sacrificed. Tumors were excised, pulverized using liquid nitrogen-cooled mortar and pestle, and flash-frozen in liquid nitrogen. Tumor lysates were made from pulverized samples by addition of lysis buffer. The protein concentrations of the DNA-PK pathway members were determined by Western blots. Approximately 25 micrograms of protein was loaded per lane on an SDS-PAGE gel. Proteins were separated by gel electrophoresis, blotted onto nitrocellulose membranes, and detected using the following antibodies: H2AX, phosphorylated at S139 (Cell Signaling, catalog no. 2577L); p53, phosphorylated at S15 (Cell Signaling, catalog no. 9284S); p53, phosphorylated at S37 (Cell Signaling, catalog no. 9289S); p21 (Cell Signaling, catalog no. 2946); cdc2, phosphorylated at Y15 (Calbiochem, catalog no. 219437); cyclin B (Santa Cruz, catalog no.sc-594 (H-20)); p73, phosphorylated at […] […]

DNA-PK pathway [2] = test: Dose-dependent responses of DNA-PK pathway members in HCT 116 cells (FIG. 2); assay type: cell-based; settings: H2AX, c-Abl, p53, p73, p21, caspase-9, caspase-3
From the text: (§1) This damage impedes the ability of the cell to synthesize DNA and lengthens the time the cell spends in the S phase. […] When the DNA damage is sufficiently severe such that the double-strand breaks cannot be repaired through non-homologous end joining (NHEJ), the cell rapidly enters apoptosis. Some cells are able to reach the G2 phase but are subsequently arrested (mediated by cdc2/cyclin B) because the cells are too damaged to enter into the M phase and also eventually becomes apoptotic.

[3] = tested on: stable variant of HCT-116 cells; test: Sensitivity of SNS-595-resistant HCT-116 variant; assay type: cell-based; settings: cells with induced resistance
From the text: Consistent with this mechanism, cells with induced resistance to SNS-595 also have alterations in the DNA-PK pathway. […] Conversely, decreased levels of DNA-PK or its activity (e.g. in the presence of an inhibitor) is associated with an increased sensitivity to SNS-595.

non-proliferating cells = test: Cytotoxicity to non-proliferating cells; assay type: cell-based; settings: doses cytotoxic to proliferating cells
From the text: as §1, with “Treatment with SNS-595 results in an increase in the number of double-strand DNA breaks that form during the S phase. This” for “This”

various cells = test: Cytotoxicity of SNS-595 in various cells; assay type: cell-based
From the text: SNS-595 is a cell cycle inhibitor and arrests cells at the G2 interface. Initially, the activity of SNS-595 was believed due to topoisomerase II inhibition.
As shown by FIG. 1, ATM, ATR, and DNA-PK are three central DNA sensors/effectors that depending on the level of DNA damage that is detected within an individual cell, direct the cell into one of several outcomes including DNA repair, G2 arrest or apoptosis.

[4] = Pharmacokinetics of SNS-595 in cancer patients; assay type: in vivo, human
Procedure: SNS-595 was administered to enrolled patients for up to six cycles. A cycle is defined as a three-week period, with SNS-595 administered on the first day of each cycle (day 0), followed by at least 21 days of observation. SNS-595 was administered to cohorts of at least 3 patients and dose escalation occurred by sequential cohort.

CN[C@H]1CN(c2ccc3c(=O)c(C(=O)O)cn(-c4nccs4)c3n2)C[C@@H]1OC [SNS-595, (+)-1,4-dihydro-7-[(3S,4S)-3-methoxy-4-(methylamino)-1-pyrrolidinyl]-4-oxo-1-(2-thiazoyl)-1,8-naphthyridine-3-carboxylic acid]
levels of DNA-PK pathway members in tumors (DNA-PK pathway [1]): activated
activation of DNA-PK mediated repair and apoptotic machinery (DNA-PK pathway [2]): activates, in a dose dependent manner
sensitivity to SNS-595 relative to HCT-116 cells [3]: approximately ten fold less sensitive
lethality to non-proliferating cells (non-proliferating cells): non-lethal
EC50 (various cells): 200 to 300 nM
difference in potency, cell EC50 versus biochemical inhibition of topoisomerase II (various cells): at least a ten-fold difference
EC50 in caffeine treated cells (G2 arrest abrogated) versus untreated cells (various cells; caffeine inhibits ATM and ATR): essentially no difference in EC50 values
activity in 2-deoxyglucose treated cells versus untreated cells (various cells; topoisomerase II levels modulated with 2-deoxyglucose): essentially no difference in activity
relation of dose with AUC∞ ([4]; dose escalation by cohort): linear
MRT inf ([4]; human, intravenous, plasma, dose 3 mg/m2, mean, read-out: MRTINF_obs): 22 h
MRTINF_obs ([4]; plasma, dose 6 mg/m2, mean): 29.05 h
C0 ([4]; plasma, dose 12 mg/m2, mean): 2888.66 ng/mL
MRTINF_obs ([4]; plasma, dose 12 mg/m2, mean): 23.67 h
